From patent EP4782453A1 (Beyang Therapeutics Co., Ltd., priority 2023, dated 2025)
Where two headings read alike, the source gives them in different places.

What was measured:
[1] = system: MEIS1 gene expression; assay: Inhibition of MEIS1 gene expression in human tumor cells (qRT-PCR), MV-4-11; type: cell-based; conditions: MV4-11, MV-4-11 (carrying MLL-AF4), 48 hours of incubation, relative MEIS1 gene expression vs GAPDH, read-out: MV-4-11 MEISI EC50
From the text: (§1) Experimental Example 3: Evaluation of Inhibitory Activity of Compounds Against MEISI Gene Expression in Human Tumor Cells
(§2) The effect of test samples on MEIS1 gene expression in vitro cultured human leukemia cells MV-4-11 (carrying MLL-AF4), MOLM-13 (carrying MLL-AF9), and OCI-AML3 (carrying NPM1c) was studied.
(§3) • Human acute lymphoblastic leukemia cells MV-4-11, purchased from American Type Culture Collection, Catalog Number: CRL-9591; • Human acute myeloid leukemia cells MOLM-13, purchased from COBIOER BIOSCIENCES CO., LTD, Catalog Number: CBP60678; • Human acute myeloid leukemia cells OCI-AML3, purchased from COBIOER BIOSCIENCES CO., LTD, Catalog Number: CBP60817; • MEIS1 Primer/Probe, purchased from IDT, Catalog Number: 40831613; and • GAPDH Primer/Probe, purchased from IDT, Catalog Number: 22214836.
(§4) MV-4-11 cells were cultured in an IMDM medium containing 10% fetal bovine serum, or MOLM-13 and OCI-AML3 cells were cultured in an RPMI-1640 medium containing 20% fetal bovine serum, each supplemented with 100 U·mL^-1 penicillin and 100 µg·mL^-1 streptomycin. These cells were cultured at 37°C with 5% CO2. The suspensions of individual cell lines were prepared in their respective media and seeded into 48-well plates at a density of 100,000 cells/well. On the day of the experiment, a compound stock solution was diluted in a 6-fold gradient using DMSO. Each gradient-diluted stock solution was then further diluted 250-fold with a complete medium to prepare a series of working solutions at different concentrations. Next, 250 µL of working solution (containing the complete medium with a 2-fold serial concentration of the test compound or a positive control compound, or containing a control complete medium) was added to each well. After 48 hours of incubation, cells from the 48-well plate were collected into 1 mL centrifuge tubes, centrifuged at 1000 rpm for 5 minutes, and the complete medium was removed. Cells were washed twice with 1 mL PBS and centrifuged to remove PBS. Total RNA was extracted using the RNeasy Mini Kit (250) (QIAGEN, 74106). The threshold cycle (Ct) value for gene expression was determined using the HiScript II U+ One Step qRT-PCR Probe Kit (Vazyme) (Vazyme, Q223-01), with 3 replicates per sample. The prepared reaction mixture was placed in an ABI 7500 real-time PCR instrument, and the reaction proceeded following the procedures below. [formula]
(§5) Next, for the relative MEIS1 gene expression, the concentration (EC50) that inhibits 50% of relative MEIS1 gene expression was calculated using GraphPad Prism 8 software.

[2] = biological target: T1, Menin-MLL (Homo sapiens, UniProt O00255); assay: Inhibitory activity against Menin-MLL binding (fluorescence polarization); conditions: 150 nM His-Menin, 15 nM FITC-MLL, 25°C for 60 min
T1 construct: His-Menin (M1-L615 end); purchased BIORTUS BP9210
T1 sequence (O00255 1-615 isoform O00255-1): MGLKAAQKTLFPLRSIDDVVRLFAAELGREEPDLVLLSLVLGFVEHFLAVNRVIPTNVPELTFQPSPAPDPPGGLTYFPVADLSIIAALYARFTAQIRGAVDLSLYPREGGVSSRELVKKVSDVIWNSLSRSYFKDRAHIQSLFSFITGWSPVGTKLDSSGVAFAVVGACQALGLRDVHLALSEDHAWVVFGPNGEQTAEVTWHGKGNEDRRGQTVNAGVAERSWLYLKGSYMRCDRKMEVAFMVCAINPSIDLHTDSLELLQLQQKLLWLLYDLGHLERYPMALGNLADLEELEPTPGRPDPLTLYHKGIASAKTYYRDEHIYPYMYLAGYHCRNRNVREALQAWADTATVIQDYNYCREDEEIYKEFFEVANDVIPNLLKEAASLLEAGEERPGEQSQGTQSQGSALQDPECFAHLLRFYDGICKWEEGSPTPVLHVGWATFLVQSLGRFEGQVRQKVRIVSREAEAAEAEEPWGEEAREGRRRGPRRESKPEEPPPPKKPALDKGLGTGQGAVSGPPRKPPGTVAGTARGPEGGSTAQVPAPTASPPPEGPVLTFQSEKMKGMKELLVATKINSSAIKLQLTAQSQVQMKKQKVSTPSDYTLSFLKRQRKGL
Procedure, shortened: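 His-Menin (M1-L615, 150 nM) preincubated with compound 15 min at 25 °C in HEPES pH 7.5, 50 mM NaCl, 1 mM DTT, 0.01% BSA, then 15 nM FITC-MLL4-43 peptide added for 60 min at 25 °C. Fluorescence polarization read; IC50 from 4-parameter logistic fit, duplicates.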

[3] = system: MV-4-11 (carrying MLL-AF4); assay: Inhibition of proliferation of human tumor cells (Alamar Blue, 7 days), MV-4-11; type: cell-based; conditions: Homo sapiens, MV4-11, 168 h, MV-4-11 cells (carrying MLL-AF4), method calls the value GI50
Procedure, shortened: (§6)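 Cells seeded at 4,000/well (MV-4-11, MOLM-13) or 3,000/well (KG-1a), treated in duplicate with serial compound dilutions for 7 days at 37°C, 5% CO2. Alamar Blue fluorescence read on Day 7, normalised to 0.1% DMSO Day-7 (high) and Day-0 (low) controls; GI50 derived.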

[4] = system: MOLM-13 (carrying MLL-AF9); assay: Inhibition of proliferation of human tumor cells (Alamar Blue, 7 days), MOLM-13; type: cell-based; conditions: Homo sapiens, MOLM-13 cells (carrying MLL-AF9), method calls the value GI50
Procedure, shortened: as §6

[5] = system: MEIS1 gene expression; assay: Inhibition of MEIS1 gene expression in human tumor cells (qRT-PCR), MOLM-13; type: cell-based; conditions: MOLM-13 (carrying MLL-AF9), 48 hours of incubation, relative MEIS1 gene expression vs GAPDH
From the text: as §1, §2, §3, §4, §5

[6] = Menin-MLL IC50, fluorescence polarization
[7] = fluorescence polarization, read-out: Menin-MLL IC50

EC50 [1] [nM] | IC50 [3] [nM] | IC50 [2, 7] [nM] | IC50 ([4]; 168 h) [nM] | EC50 [5] [nM] | Structure (SMILES) | IC50 [2, 6] [nM] | IC50 ([4]; MOLM-13, 168 h) [nM]
42 | 9.1 | 12 | 27 |  | Cc1nc(F)c2c(-c3ccc(F)cc3C(=O)N3CCC[C@H]3C)cc(C3CN(C(C)C4CCOCC4)C3)cn12 (stereo partly shown) [Example 188] |  | 
89 | 29 | 33 | 44 |  | CC(=O)N1CCC(CN2CC(c3cc(-c4ccc(F)cc4C(=O)N4CCC[C@H]4C)c4c(F)nc(C)n4c3)C2)CC1 [Example 189] |  | 
53 | 6.4 | 10.7 | 46 |  | Cc1nc(F)c2c(-c3ccc(F)cc3C(=O)N3CCOC[C@H]3C)cc(C3CN([C@@H](CO[C@H]4CCCN(C)C4)C(C)C)C3)cn12 [Example 321-1, (3R)-4-[5-fluoro-2-(1-fluoro-3-methyl-6-{1-[(2R)-3-methyl-1-{[(3S)-1-methylpiperidin-3-yl]oxy}butan-2-yl]azacyclobutan-3-yl}imidazo[1,5-a]pyridin-8yl)benzoyl]-3-methylmorpholine] |  | 
63 |  | 11 |  | 17.9 | CC(=O)N1CCN(CCC[C@H](C(C)C)N2CC(c3cc(-c4ccc(F)cc4C(=O)N4CCOC[C@H]4C)c4c(F)nc(C)n4c3)C2)[C@@H](C)C1 [Example 329] |  | 
63 |  | 14 |  | 20.3 | CC(=O)N1CCN(CCC[C@H](C(C)C)N2CC(c3cc(-c4ccc(F)cc4C(=O)N4CCOC[C@H]4C)c4c(F)nc(C)n4c3)C2)C[C@@H]1C [Example 331] |  | 
19 |  | 9 |  | 9.3 | CC(=O)N1CCN(CCC[C@H](C(C)C)N2CC(c3cc(-c4ccc(F)cc4C(=O)N4CCOC[C@H]4C)c4c(F)nc(C)n4c3)C2)C(C)(C)C1 [Example 336] |  | 
27 |  | 9 |  | 1.8 | Cc1nc(F)c2c(-c3ccc(F)cc3C(=O)N3CCOC[C@H]3C)cc(C3CN([C@H](CCCN4CCN(C(=O)C(C)C)CC4)C(C)C)C3)cn12 [Example 338] |  | 
26 |  | 10 |  | 6 | Cc1nc(F)c2c(-c3ccc(F)cc3C(=O)N3CCOC[C@H]3C)cc(C3CN([C@H](CCCN4CCN(C(=O)C5CC5)CC4)C(C)C)C3)cn12 [Example 341] |  | 

More lines, now with the values behind:

Structure (SMILES) | EC50 [1] [nM] | IC50 [3] [nM] | IC50 [2, 7] [nM] | IC50 ([4]; 168 h) [nM] | EC50 [5] [nM] | IC50 [2, 6] [nM] | IC50 ([4]; MOLM-13, 168 h) [nM]
CCN(C(=O)c1cc(F)ccc1-c1cc(C2CCN(C[C@H]3CC[C@H](NS(=O)(=O)CC)CC3)C2)cn2c(C)ncc12)C(C)C (mixture of isomers) [Example 30, N-ethyl-5-fluoro-2-[3-methyl-6-(1-{[(1r,4r)-4-ethanesulfonamidocyclohexyl]methyl}pyrrolidin-3-yl)imidazo[1,5-a]pyridin-8-yl]-N-(isopropyl)benzamide] | 20 |  |  |  |  | 6 | 
Cc1cncc2c(-c3ccc(F)cc3C(=O)N3CCOC[C@H]3C)cc(CC3CN(CC4CCOCC4)C3)n12 [Example 260] | 7.6 | 7.1 | 3 |  |  |  | 10
Cc1ncc2c(-c3ccc(F)cc3C(=O)N3CCOC[C@H]3C)cc(C3CN([C@H](CCCN4CCN(C5CC5)CC4)C(C)C)C3)cn12 [Example 325] | 7.6 |  |  |  | 4.2 | 3.2 | 
CCN(C(=O)c1cc(F)ccc1-c1cc(C2CN([C@H](CCCN3CCC[C@@H](O)C3)C(C)C)C2)cn2c(C)ncc12)C(C)C [Example 326] | 4.6 |  | 2 |  | 5.5 |  | 
CC(=O)N1CC2CC(C1)N2CCC[C@H](C(C)C)N1CC(c2cc(-c3ccc(F)cc3C(=O)N3CCOC[C@H]3C)c3c(F)nc(C)n3c2)C1 [Example 346] | 10 |  | 3.8 | 8.3 | 5 |  | 
